From PubChem BioAssay (NCI)
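Five concentrations, 48 hours, 96-well plates. TGI is the concentration that stops growth completely.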

How the values were obtained:
Test in all cases: inhibition of tumour cell growth, NCI panel, 48 h
[1] = system: SW-620 colon
[2] = system: HT29 colon
[3] = system: A549 NSCLC
[4] = system: HCC-2998 colon
[5] = system: HOP-92 NSCLC
[6] = system: BT-549 breast
[7] = system: NCI-H460 lung
[8] = system: SF-268 CNS
[9] = system: MDA-MB-435
[10] = system: SK-MEL-5 melanoma
[11] = system: SNB-19 CNS
[12] = system: PC-3 prostate
[13] = system: HOP-62 NSCLC
[14] = system: CCRF-CEM leukemia
[15] = system: HL-60(TB) leukemia
[16] = system: TK-10 renal
[17] = system: MALME-3M melanoma
[18] = system: A498 renal
[19] = system: MDA-N
[20] = system: RXF 393 renal

| SMILES | TGI [1] [µM] | TGI [2] [µM] | TGI [3] [µM] | TGI [4] [µM] | TGI [5] [µM] | TGI [6] [µM] | TGI [7] [µM] | TGI [8] [µM] | TGI [9] [µM] | TGI [10] [µM] | TGI [11] [µM] | TGI [12] [µM] | TGI [13] [µM] | TGI [14] [µM] | TGI [15] [µM] | TGI [16] [µM] | TGI [17] [µM] | TGI [18] [µM] | TGI [19] [µM] | TGI [20] [µM] |
| --- | --- | --- | --- | --- | --- | --- | --- | --- | --- | --- | --- | --- | --- | --- | --- | --- | --- | --- | --- | --- |
| CNC(=O)CN(C)C(=O)CCC(=O)N(C)C | > 100 | > 100 | > 100 | > 100 | > 100 | > 100 | > 100 | > 100 | > 100 | > 100 | > 100 | > 100 | > 100 | > 100 | > 100 | > 100 | > 100 | > 100 | > 100 |  |
| Nc1ncnc2c1ncn2[C@H]1CC[C@@H](NO)C1 | > 100 |  | > 100 | > 100 | > 100 | > 100 | > 100 | > 100 | > 100 | > 100 | > 100 | > 100 | > 100 | > 100 |  | > 100 | > 100 | > 100 | > 100 | > 100 |
| COC(=O)/C=C\C(C#N)(C#N)N=Cc1ccc(Br)s1 | 5.53 |  | 45.4 | 34.4 | 4.67 | 16.8 | 48 | 40.2 | 13.9 | 27.4 | 21.9 | 26.8 | 31.8 | 5.5 | 5.04 | 6.65 | 4.27 | 31.5 | 24.4 | 4.87 |
| Cc1ccc(-c2nc(-c3cnccn3)n(C3OC(CO)C(O)C(O)C3O)n2)cc1 (centres undefined) | > 100 | > 100 | > 100 | > 100 | > 100 | > 100 | > 100 | > 100 | > 100 | > 100 | > 100 | > 100 | > 100 | > 100 | > 100 | > 100 |  |  | > 100 | > 100 |
| CCOC(=O)C(NCc1cccc(C(F)(F)F)c1)(NC(=O)CC)C(F)(F)F (centres undefined) | > 100 | > 100 | > 100 | > 100 | > 100 | > 100 |  | > 100 | > 100 | > 100 | > 100 | > 100 | > 100 | > 100 | > 100 | > 100 | > 100 |  | > 100 | > 100 |
| COCn1c(C)c(C)c2c(=O)oc(N(C)C)nc21 | > 100 | > 100 | > 100 | > 100 | > 100 | > 100 | > 100 |  | > 100 | > 100 | > 100 | > 100 | > 100 | > 100 | > 100 | > 100 | > 100 | > 100 | > 100 | > 100 |
| COC(=O)/C=C(\S/C(=N\n1cc(C(=O)OC)c(C(=O)OC)c1-c1ccc(C)cc1)c1ccc(C)cc1)C(=O)OC | 5.53 | 9.67 | 51.8 | 34 | 8.31 | 21.3 | > 56.6 | 40.4 | 13.5 | 27.1 | > 61 | 10.3 | 41.6 |  | 14.7 | 8.42 | 13.9 | 30 | 12.7 | 13.9 |
| Cc1cc(-c2nc3ccc(F)cc3s2)ccc1N | > 100 | > 100 | > 100 | > 100 | > 100 | > 100 |  | > 100 | > 100 | > 100 | > 100 | > 100 | > 100 | > 100 |  | > 100 | > 100 | > 100 | > 100 | > 100 |
| O=[N+]([O-])c1cc(Cl)cc2cc(Br)cnc12 | > 31.6 | > 31.6 | > 31.6 | > 31.6 | > 23.5 | > 31.6 | > 31.6 |  | > 31.6 | > 31.6 | > 31.6 | > 31.6 | > 31.6 | > 31.6 | > 31.6 | > 31.6 | > 31.6 | > 31.6 | > 31.6 | > 31.6 |
| COC1CC(NC(=O)C(F)(F)F)C(OC(C)=O)C(C)O1 (centres undefined) | > 100 | > 100 | > 100 | > 100 | > 100 | > 100 | > 100 | > 100 | > 100 | > 100 | > 100 | > 100 | > 100 | > 100 | > 100 | > 100 | > 100 |  | > 100 | > 100 |
| C#CCCCOc1ncccn1 | > 100 | > 100 | > 100 | > 100 | > 100 | > 100 |  | > 100 | > 100 | > 100 | > 100 | > 100 | > 100 |  | > 100 | > 100 | > 100 | > 100 | > 100 | > 100 |
